Reference: US20060134801A1, “Methods and compositions involving MDA-7” (Board of Regents, The University of Texas System, priority 2003, published 2006)

What was measured:
A549 [1] = experiment: Cell proliferation assay (trypan blue); type: cell-based, human
Protocol: All three cell lines (A549, H1299, and CCD-16) were seeded in 60-mm-diameter tissue culture dishes at a density of 1×10^5 cells/dish in triplicate. […] […] At 72 h after the start of treatment, the cells were harvested by trypsinization, washed, and subjected to typan-blue exclusion assay as previously described (Saeki et al., 2000).

H1299 [2] = experiment: Cell proliferation assay (trypan blue); type: cell-based; settings: Homo sapiens, NCI-H1299; read-out: IC50 of growth inhibition
Protocol: (§1) All three cell lines (A549, H1299, and CCD-16) were seeded in 60-mm-diameter tissue culture dishes at a density of 1×10^5 cells/dish in triplicate. […] The concentrations of sulindac tested were 0.125, 0.25, and 0.5 mM. At 72 h after the start of treatment, the cells were harvested by trypsinization, washed, and subjected to typan-blue exclusion assay as previously described (Saeki et al., 2000).

CCD-16 [3] = experiment: Cell proliferation assay (trypan blue); type: cell-based, human
Protocol: as §1

A549 [4] = experiment: Ad-GFP transduction efficiency with sulindac (flow cytometry); type: cell-based, human; settings: Ad-GFP 100 vp/cell, 24 h
Protocol: (§2) To determine the effect of sulindac on adenovirus transduction, tumor and normal cells were infected with Ad-GFP at 100 vp/cell and analyzed for GFP expression at 24 h by FACS.

CCD-16 [5] = experiment: as above; type: cell-based, human; settings: Ad-GFP 100 vp/cell, 24 h
Protocol: as §2

H1299 [6] = experiment: as above; type: cell-based, human; settings: Ad-GFP 100 vp/cell, 24 h
Protocol: as §2

A549 [7] = experiment: Cell cycle distribution by FACS; type: cell-based, human; settings: 72 h
Protocol: (§3) Each treatment group was tested in triplicate. The concentrations of sulindac used were the same as those for the cell-proliferation assay. At 72 h after the start of the treatment, cells were harvested, washed, and analyzed for cell cycle phases and apoptotic fraction as previously described (Saeki et al., 2000). The cell cycle phases and DNA contents were analyzed using FACScan (EPICS XL-MCL; Beckman Coulter, Fullerton, Calif.).

H1299 [8] = experiment: Cell cycle distribution by FACS; type: cell-based, human; settings: 72 h
Protocol: as §3

[9] = target: T1, proteasome in H1299 cells (Homo sapiens, UniProt P28074); experiment: Proteasome activity assay and ubiquitinated protein western blot; type: cell-based; settings: vs untreated control cells
T1 construct: endogenous in cells; host or cells: H1299 human lung cancer cells, treated and then lysed; 20 µg total lysate protein per reaction
Protocol: Proteasome activity assays were performed as previously described (Choi et al., 2003). […] The sulindac concentrations tested were the same as those in the other assays. At 24 h after the start of treatment, the cells were lysed in proteasome buffer (10 mM Tris-HCl, pH 7.5, 1 mM EDTA, 20% glycerol, 5 mM ATP, and 4 mM DTT), sonicated, and then centrifuged at 1300×g at 4° C. for 10 min. The upper supernatant phase was collected, and the protein concentration of cell lysates was determined as previously described (Saeki et al., 2000).
To assay the chymotrypsin-like activity of the proteasome, the fluorogenic substrate Suc-LLVY-AMC (Chemicon International, Inc., Temecula, Calif.) was used. Twenty micrograms of total protein from each treatment group described above was diluted to 100 μl in reaction buffer (25 mM HEPES, pH 7.5, 0.5 mM EDTA, 0.05% NP-40, and 0.001% SDS). […] The intensity of fluorescence in each sample solution was measured using a fluorescence plate reader (Dynatech Laboratories, Chantily, Va.) at 360-nm excitatory and 460-nm emission wavelengths. All readings were standardized using the fluorescence intensity of an equal volume of free 7-Amino-4-methylcoumarin (AMC) solution (50 μM). The values were expressed as percentages for control greater than the internal positive control percentages provided by the supplier.

NF-κB = NF-κB activation by EMSA; type: cell-based, human; settings: H1299 and A549
[10] = tested on: H1299 lung tumor xenografts; experiment: H1299 subcutaneous xenograft, Ad-mda7 with sulindac; settings: vector 3×10^9 vp intratumoral thrice a week; sulindac 40 mg/kg i.p. daily
Protocol: In mice receiving sulindac, 40 mg/kg was administered i.p. every day. Animals were weighed once a week to determine the body weight. Tumor growth was monitored and measured three times a week as described previously (Saeki et al., 2002; Ramesh et al., 2003). At 22-25 days after initiation of the treatment all animals were killed via CO2 inhalation, and the tumors were removed for histopathologic examination and western blot analysis. Experiments were performed two separate times for reproducibility and statistical significance.

T1 sequence (P28074 60-263): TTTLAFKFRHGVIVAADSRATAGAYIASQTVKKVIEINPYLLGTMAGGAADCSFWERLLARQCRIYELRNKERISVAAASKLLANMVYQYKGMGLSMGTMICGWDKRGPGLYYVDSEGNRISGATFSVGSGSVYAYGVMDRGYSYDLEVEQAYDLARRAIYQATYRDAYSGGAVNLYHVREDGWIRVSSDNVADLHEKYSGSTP

## CC1=C(CC(=O)O)c2cc(F)ccc2/C1=C\c1ccc([S+](C)[O-])cc1 (centres unmarked) [Sulindac]
A549 [1]; Homo sapiens, A549, read-out: IC50 of growth inhibition
  IC50: 580 µM
A549 [1]; tumor cells, 1 and 2 mM
  inhibitory effect on cell proliferation: > 90%
H1299 [2]
  IC50: 610 µM
CCD-16 [3]; Homo sapiens, read-out: IC50 of growth inhibition
  IC50: 940 µM
CCD-16 [3]; normal cells, 1 and 2 mM
  inhibitory effect on cell proliferation: 60%
A549 [4]; sulindac 0.125 mM
  transduction efficiency: 52.4 ± 0.6%
A549 [4]; sulindac 0.25 mM
  transduction efficiency: 51.5 ± 1.3%
A549 [4]; sulindac 0.5 mM
  transduction efficiency: 65.0 ± 1.5 + a %
CCD-16 [5]; sulindac 0.125 mM
  transduction efficiency: 12.1 ± 0.4%
CCD-16 [5]; sulindac 0.25 mM
  transduction efficiency: 11.1 ± 1.0%
CCD-16 [5]; sulindac 0.5 mM
  transduction efficiency: 13.7 ± 0.4%
H1299 [6]; sulindac 0.125 mM
  transduction efficiency: 80.0 ± 0.5%
H1299 [6]; sulindac 0.25 mM
  transduction efficiency: 78.6 ± 1.2%
H1299 [6]; sulindac 0.5 mM
  transduction efficiency: 82.7 ± 2.8%
A549 [7]; sulindac 0.125 mM
  cells in G1: 64.8%
  cells in G2/M: 6.4%
  cells in S: 28.9%
A549 [7]; sulindac 0.5 mM
  cells in G1: 75.6%
  cells in G2/M: 6.0%
  cells in S: 18.5%
H1299 [8]; sulindac 0.125 mM
  cells in G1: 66.4%
  cells in G2/M: 11.4%
  cells in S: 22.3%
H1299 [8]; sulindac 0.5 mM
  cells in G1: 74.6%
  cells in G2/M: 12.7%
  cells in S: 13.0%
[9]
  proteasome activity: does not inhibit
NF-κB
  NF-κB activation: inhibit NF-κB activation
[10]
  tumor growth: No significant growth inhibition
